Experiments:
[1] = some clinical studies and anecdotal reports; a perception; cited from earlier work
[2] = Pain relief, THC alone versus cannabis extract
[3] = Reports of subjects taking THCV; type: in vivo
Description: In a further aspect the invention also provides compositions which have specific ratios of tetrahydrocannabinovarin (THCV) or cannabidivarin (CBDV).

**Q.** With `C=C(C)[C@@H]1CCC(C)=C[C@H]1c1c(O)cc(CCCCC)cc1O` [CBD, cannabidiol] as the compound, how does the “effect on psychoactive effects of THC” value [1] read?
**A.** modifies the psychoactive effects of THC

**Q.** For `CCCCCc1cc(O)c2c(c1)OC(C)(C)[C@@H]1CCC(C)=C[C@@H]21` [THC, tetrahydrocannabinol], which “degree of pain relief” value [2] is on record?
**A.** lower degree of pain relief

**Q.** Which hangover [3] does the source give for `CCCc1cc(O)c2c(c1)OC(C)(C)[C@@H]1CCC(C)=C[C@@H]21` [THCV, tetrahydrocannabinovarin] here?
**A.** less severe hangover

**Q.** What about the mood enhancement ([3]; compared with THC) of the same compound?
**A.** less disturbing than that produced by THC
